According to publication PMC4607407 (PLoS ONE, 2015):
Read-outs that look alike come from different tables or passages of the source. One block for each molecule: values may come before it.

Key:
[1] = test system: melanoma PDX tumor model (ST052C); assay: Vemurafenib-resistant melanoma PDX combination study; format: in vivo, mice; conditions: ARQ 092 100 mg/kg 5 days on 2 days off; trametinib 3 mg/kg; p<0.05
KPL-4 tumors = assay: KPL-4 xenograft combination study; format: in vivo, mice; conditions: vs untreated control; ARQ 092 60 mg/kg oral daily 12 days; trastuzumab 15 mg/kg iv every three days; paclitaxel 15 mg/kg iv every 6 days
AKT1-E17K = target: T1, AKT1-E17K (Homo sapiens, UniProt P31749, E17K); assay: AKT1 plasma membrane translocation in NIH 3T3 cells; format: cell-based; conditions: NIH 3T3, 1 μM for 2 hours, PDGF-BB 50 ng/ml 10 minutes
T1 construct: host or cells: NIH 3T3 cells
T1 sequence (P31749 whole entry E17K): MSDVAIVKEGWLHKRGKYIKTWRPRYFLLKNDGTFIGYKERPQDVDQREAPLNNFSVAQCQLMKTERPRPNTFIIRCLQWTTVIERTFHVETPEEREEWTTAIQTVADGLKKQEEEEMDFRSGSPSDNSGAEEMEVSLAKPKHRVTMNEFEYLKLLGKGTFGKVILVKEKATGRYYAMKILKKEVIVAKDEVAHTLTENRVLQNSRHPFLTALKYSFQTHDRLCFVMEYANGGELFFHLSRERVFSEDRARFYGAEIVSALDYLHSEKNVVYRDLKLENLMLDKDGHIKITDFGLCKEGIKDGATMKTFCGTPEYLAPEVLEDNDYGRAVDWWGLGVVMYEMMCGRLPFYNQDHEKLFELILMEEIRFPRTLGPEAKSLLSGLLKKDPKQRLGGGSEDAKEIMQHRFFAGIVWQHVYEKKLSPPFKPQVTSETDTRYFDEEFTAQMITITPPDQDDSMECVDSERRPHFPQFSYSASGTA
Description: (§1) Cells (15,000 cells per chamber) were plated into a Nunc Lab-Tek Chambered Coverglass System (Thermo Fisher Scientific, Waltham, MA) containing full media without antibiotics. […] Next, the cells were stimulated with PDGF (PeproTech, Rocky Hill, NJ) at 50 ng/ml for 10 minutes. Cells were washed with PBS and then fixed with 200 μl paraformaldehyde fixation buffer (3% paraformaldehyde, 2% sucrose in PBS, pre-warmed at […]). After washing with PBS, cells were blocked and permeabolized with 0.1% TX-100 + 1% BSA in PBS for 15 minutes at room temperature. Next, 200 μl DAPI (1 μg/ml in PBS) was used to counterstain the nuclei at room temperature in darkness for 15 minutes. Samples were then rinsed with cold PBS and stored at 4°C until imaging. Images were captured using an Olympus inverted epi-fluorescent microscope (Olympus Corporation of America, Center Valley, PA) with a 60x oil immersion objective.

AKT1-WT = target: T2, AKT1-WT (Homo sapiens, UniProt P31749); assay: as above; format: cell-based; conditions: NIH 3T3, 1 μM for 2 hours, PDGF-BB 50 ng/ml 10 minutes
T2 construct: host or cells: NIH 3T3 cells
T2 sequence (P31749 whole entry): as the sequence (P31749 whole entry E17K) above, with K17E counted along it
Description: as §1

NCI-H1650 = assay: Cell proliferation MTS assay; format: cell-based; conditions: Homo sapiens, read-out: IC50 NCI-H1650 (PTEN null)
Description: (§2) IC50 was calculated using Activity Base. Data shown as mean ± standard deviation. […] (DOCX) Click here for additional data file.
(§3) Treated cells were incubated at 37°C for 72 hours in 5% CO2.
(§4) The GI50 was then determined using Microsoft ExcelFit software in Activity Base.

MDA-MB-453 = assay: Cell proliferation MTS assay; format: cell-based; conditions: Homo sapiens, read-out: IC50 MDA-MB-453 (PIK3CAH1047R)
Description: as §2, §3, §4

KU-19-19 = assay: Cell proliferation MTS assay; format: cell-based; conditions: Homo sapiens, read-out: IC50 KU-19-19 (AKT1-E17K, NrasQ61R)
Description: as §2, §3, §4

SMILES: CC(=O)Nc1cccc(-n2c(=O)n(C3CC3)c(=O)c3c(Nc4ccc(I)cc4F)n(C)c(=O)c(C)c32)c1 [trametinib, reference compound]
TGI [1]: 26%

SMILES: CC(=O)O[C@H]1C(=O)[C@@]2(C)[C@H]([C@H](OC(=O)c3ccccc3)[C@]3(O)C[C@H](OC(=O)[C@H](O)[C@@H](NC(=O)c4ccccc4)c4ccccc4)C(C)=C1C3(C)C)[C@]1(OC(C)=O)CO[C@@H]1C[C@@H]2O [paclitaxel, reference compound]
tumor growth inhibition (KPL-4 tumors): 41%

SMILES: CC(C)NC[C@@H](C(=O)N1CCN(c2ncnc3c2[C@H](C)C[C@H]3O)CC1)c1ccc(Cl)cc1 [GDC-0068, reference compound]
plasma membrane translocation of AKT1-E17K (AKT1-E17K): stimulated translocation | plasma membrane translocation of AKT1-WT (AKT1-WT): stimulated translocation | IC50 (NCI-H1650; NCI-H1650, 72 h): > 33.3 µM | IC50 (MDA-MB-453; MDA-MB-453, 72 h): 1 ± 0.16 µM | IC50 (KU-19-19; KU-19-19, 72 h): 55 ± 5.1 µM

plasma membrane translocation of AKT1-E17K (AKT1-E17K): only weakly inhibited | plasma membrane translocation of AKT1-WT (AKT1-WT): inhibited | IC50 (NCI-H1650; NCI-H1650, MTS, 72 hours, mean ± standard deviation): 15.2 ± 3.01 µM | IC50 (MDA-MB-453; MDA-MB-453, MTS, 72 hours, mean ± standard deviation): 0.26 ± 0.02 µM
SMILES: NC1(c2ccc(-c3nc4ccn5c(=O)[nH]nc5c4cc3-c3ccccc3)cc2)CCC1 [MK-2206, reference compound]
IC50 (KU-19-19; KU-19-19, MTS, 72 hours, mean ± standard deviation): 21.5 ± 5.3 µM
